pEC50: −log10 of the molar value.
Tests used:
healthy subjects = assay: Safety and Efficacy Study 1, Part 1 with healthy subjects; assay type: in vivo, human; details: interim data
[1] = Rat pharmacokinetics, single IV and PO dose; assay type: in vivo, male Sprague Dawley rats; details: single nominal oral dose 3 mg/kg
Description: Compound 1 was also administered to male Sprague Dawley rats at single nominal oral dose (PO) of 3 mg/kg as a solution in 5% NMP, 30% PEG400, 10% TPGS, 5% PVP-K30 at 5 mL/kg dose volume.
The study design, sample tracking, data run design and individual plasma sample concentrations were stored using Watson LIMS software, Version 7.4.2 (Thermo Scientific Inc, Waltham, MA). Plasma concentration-time profiles of Compound 1 in Sprague Dawley rats at scheduled (nominal) sampling times were analyzed by noncompartmental pharmacokinetic methods using PK function within Watson LIMS software, Version 7.4.2 (Thermo Scientific Inc, Waltham, MA). Key pharmacokinetic parameters such as “area under the curve” (AUC), from the time of drug administration, time zero, extrapolated to infinity, clearance (CL), and Percent of oral bioavailability (% F) were determined. The AUC values were calculated using the linear trapezoidal rule.

[2] = target: T1, F508del CFTR in NIH3T3 cells (Homo sapiens, UniProt P13569, DEL508-508); assay: Membrane potential optical assay (correction assay); assay type: cell-based
T1 construct: expressed in transfected cells
Excerpt: An optical assay was employed to measure changes in membrane potential to determine the CFTR modulator properties of compounds. The assay utilized fluorescent voltage sensing dyes to measure changes in membrane potential using a fluorescent plate reader (e.g., FLIPR III, Molecular Devices, Inc.) as a readout for increase in functional F508del in NIH 3T3 cells. The driving force for the response was the creation of a chloride ion gradient in conjunction with channel activation and concurrent with compound treatment by a single liquid addition step after the cells had previously been loaded with a voltage sensing dye.
NIH3T3 mouse fibroblasts stably expressing F508del were used for optical measurements of membrane potential. The cells were maintained at 37° C. in 5% CO2 and 90% humidity in Dulbecco's modified Eagle's medium supplemented with 2 mM glutamine, 10% fetal bovine serum, 1×NEAA, P-ME, 1× pen/strep, and 25 mM HEPES in 175 cm^2 culture flasks. For all optical assays, the cells were seeded at 12,000 cells/well in 384-well matrigel-coated plates. […] The cells were then activated and treated with Compound I. After 18-24 hours, fluorescence from the voltage sensing dye in the cells was measured to assess changes in the membrane potential as a read out for increase in functional F508del CFTR in the NIH3T3 cells.

[3] = target: T2, F508del-CFTR in human bronchial epithelial (HBE) cells (Homo sapiens, UniProt P13569, DEL508-508); assay: Ussing chamber assay; assay type: cell-based; details: chloride current
T2 construct: Non-CF and CF airway epithelia were isolated from bronchial tissue; endogenous in cells; host or cells: primary CF human bronchial epithelial (HBE) cells
Description: Ussing chamber experiments were performed on polarized airway epithelial cells expressing F508del to further characterize the F508del modulators identified in the optical assay above. Non-CF and CF airway epithelia were isolated from bronchial tissue, cultured using methods well known in the art, and plated onto Costar® Snapwell™ filters that were precoated with NIH3T3-conditioned media. After four days the apical media was removed and the cells were grown at an air liquid interface for >14 days prior to use. […] CF-HBE cells were isolated from patients homozygous for F508del (F508del/F508del-HBE) or heterozygous for F508del with a different disease causing mutation on the other allele.
HBE cells grown on Costar® Snapwell™ cell culture inserts were mounted in an Ussing chamber (Physiologic Instruments, Inc., San Diego, CA), and the transepithelial resistance and short-circuit current in the presence of a basolateral to apical Cl^− gradient (ISC) were measured using a voltage-clamp system (Department of Bioengineering, University of Iowa, IA). Briefly, HBE cells were examined under voltage-clamp recording conditions (Vhold=0 mV) at 37° C. […]
A basolateral to apical membrane Cl^− concentration gradient was set up as follows. […] Chloride current was measured to assess the increase in functional CFTR in the cell membrane.

T2 sequence (P13569 with tags, fused parts or gaps DEL508-508): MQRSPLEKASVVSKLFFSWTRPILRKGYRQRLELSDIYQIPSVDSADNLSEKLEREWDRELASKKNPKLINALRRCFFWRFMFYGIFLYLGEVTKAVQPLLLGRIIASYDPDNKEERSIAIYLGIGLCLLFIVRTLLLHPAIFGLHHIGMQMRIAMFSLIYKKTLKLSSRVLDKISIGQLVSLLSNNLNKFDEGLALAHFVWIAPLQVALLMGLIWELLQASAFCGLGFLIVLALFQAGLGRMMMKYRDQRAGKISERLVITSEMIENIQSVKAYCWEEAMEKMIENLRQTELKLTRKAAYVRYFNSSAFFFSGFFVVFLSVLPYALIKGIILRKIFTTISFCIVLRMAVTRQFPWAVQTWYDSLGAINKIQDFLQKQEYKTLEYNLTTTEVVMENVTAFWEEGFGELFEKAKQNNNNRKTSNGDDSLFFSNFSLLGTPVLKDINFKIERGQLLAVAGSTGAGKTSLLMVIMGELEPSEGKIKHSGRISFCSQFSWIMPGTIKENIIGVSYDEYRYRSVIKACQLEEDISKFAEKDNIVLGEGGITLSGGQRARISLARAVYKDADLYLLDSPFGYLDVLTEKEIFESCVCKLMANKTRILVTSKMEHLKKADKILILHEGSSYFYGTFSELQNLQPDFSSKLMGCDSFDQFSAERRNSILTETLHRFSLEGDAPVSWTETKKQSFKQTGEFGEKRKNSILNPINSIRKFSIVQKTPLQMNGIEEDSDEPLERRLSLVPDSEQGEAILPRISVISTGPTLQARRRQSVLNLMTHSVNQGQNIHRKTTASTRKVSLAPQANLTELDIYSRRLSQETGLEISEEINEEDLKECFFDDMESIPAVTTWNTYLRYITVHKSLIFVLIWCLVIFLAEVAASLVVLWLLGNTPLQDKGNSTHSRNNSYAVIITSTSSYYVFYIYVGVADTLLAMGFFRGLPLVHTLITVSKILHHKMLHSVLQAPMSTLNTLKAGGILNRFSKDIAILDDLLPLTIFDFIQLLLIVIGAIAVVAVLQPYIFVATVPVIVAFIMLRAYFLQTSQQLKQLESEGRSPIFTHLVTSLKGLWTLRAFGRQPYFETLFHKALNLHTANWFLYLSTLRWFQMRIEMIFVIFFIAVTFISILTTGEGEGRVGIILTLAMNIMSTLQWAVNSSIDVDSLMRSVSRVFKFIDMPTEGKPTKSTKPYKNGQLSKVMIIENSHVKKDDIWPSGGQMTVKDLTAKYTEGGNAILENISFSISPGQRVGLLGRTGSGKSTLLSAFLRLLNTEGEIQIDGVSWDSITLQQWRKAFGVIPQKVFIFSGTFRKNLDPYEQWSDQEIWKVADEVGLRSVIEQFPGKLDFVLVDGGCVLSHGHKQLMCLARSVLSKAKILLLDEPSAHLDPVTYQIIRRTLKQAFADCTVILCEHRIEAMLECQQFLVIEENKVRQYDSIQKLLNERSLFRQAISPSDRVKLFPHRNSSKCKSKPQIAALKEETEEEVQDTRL
T1 sequence (P13569 with tags, fused parts or gaps DEL508-508): as above

Cc1nn(C)cc1S(=O)(=O)NC(=O)c1ccc(-n2ccc(OCC(C)(C)C(F)(F)F)n2)nc1N1C[C@@H](C)CC1(C)C [Compound I, N-(1,3-dimethylpyrazol-4-yl)sulfonyl-6-[3-(3,3,3-trifluoro-2,2-dimethyl-propoxy)pyrazol-1-yl]-2-[(4S)-2,2,4-trimethylpyrrolidin-1-yl]pyridine-3-carboxamide]
safety and tolerability (healthy subjects; multiple doses up to 340 mg for 10 days): safe and well tolerated
safety and tolerability (healthy subjects; single doses up to 360 mg): safe and well tolerated
Rat PO AUC/dose [1]: 9.4 ± 0.7 µg·h/mL/mg/kg
Emax ([2]; NIH3T3, relative to Compound II, read-out: % Efficacy): ≥ 100%
pEC50 ([2]; NIH3T3 cells expressing F508del, 18-24 hours treatment): > 5.52
pEC50 [3]: > 5.70
HBE Max Eff [3]: +++ (means >100%)

— patent publication US12350262B2, “Methods of treatment for cystic fibrosis” (Vertex Pharmaceuticals Incorporated, priority 2017, dated 2025)
